Measured values: US6887896B1, “7-[(7-Alkoxy)-chrom-3-en-6-yl]-heptatrienoic acid and 7-[(3-alkoxy)-5,6-dihydronaphthalen-2-yl]-heptatrienoic acid derivatives having serum glucose reducing activity” (Allergan, Inc., priority 2003, dated 2005)

Legend:
[1] = target: T1, RXRβ (UniProt P28704); assay: holoreceptor transactivation assay, RXRβ; assay type: cell-based; conditions: for EC50: holoreceptor transactivation, read-out: RXR Trans. EC50 β; for RXR Trans. efficacy (number in parentheses) β: percentage compared to the standard compound
T1 sequence (P28704 1-520): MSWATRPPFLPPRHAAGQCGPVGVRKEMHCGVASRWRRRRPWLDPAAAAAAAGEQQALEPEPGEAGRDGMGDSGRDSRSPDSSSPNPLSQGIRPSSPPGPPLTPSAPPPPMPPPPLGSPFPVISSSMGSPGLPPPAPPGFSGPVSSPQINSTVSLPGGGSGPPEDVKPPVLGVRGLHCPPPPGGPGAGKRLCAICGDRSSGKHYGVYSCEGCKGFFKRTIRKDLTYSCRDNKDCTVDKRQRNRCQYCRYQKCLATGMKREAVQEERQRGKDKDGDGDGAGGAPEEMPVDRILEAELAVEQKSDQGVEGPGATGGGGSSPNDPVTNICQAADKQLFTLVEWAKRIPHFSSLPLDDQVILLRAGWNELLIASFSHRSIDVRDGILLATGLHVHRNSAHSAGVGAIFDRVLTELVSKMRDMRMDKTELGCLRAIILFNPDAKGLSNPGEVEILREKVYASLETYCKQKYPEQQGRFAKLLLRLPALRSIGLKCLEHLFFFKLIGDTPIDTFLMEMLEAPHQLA
Summary of the method: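 Readout: EC50, nM, from receptor transactivation; efficacy = % of maximum vs standard cyclopropyl penta-2,4-dienoic acid retinoid. RXR data from holoreceptor format; RAR data from chimeric receptor format.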

[2] = target: T2, RARβ (Homo sapiens, UniProt P10826); assay: ligand binding assay, RARβ; conditions: for Ki: read-out: RAR Bind. Ki β; for Kd: Table 9 (Formula F), read-out: RAR β Kd
T2 sequence (P10826 1-455): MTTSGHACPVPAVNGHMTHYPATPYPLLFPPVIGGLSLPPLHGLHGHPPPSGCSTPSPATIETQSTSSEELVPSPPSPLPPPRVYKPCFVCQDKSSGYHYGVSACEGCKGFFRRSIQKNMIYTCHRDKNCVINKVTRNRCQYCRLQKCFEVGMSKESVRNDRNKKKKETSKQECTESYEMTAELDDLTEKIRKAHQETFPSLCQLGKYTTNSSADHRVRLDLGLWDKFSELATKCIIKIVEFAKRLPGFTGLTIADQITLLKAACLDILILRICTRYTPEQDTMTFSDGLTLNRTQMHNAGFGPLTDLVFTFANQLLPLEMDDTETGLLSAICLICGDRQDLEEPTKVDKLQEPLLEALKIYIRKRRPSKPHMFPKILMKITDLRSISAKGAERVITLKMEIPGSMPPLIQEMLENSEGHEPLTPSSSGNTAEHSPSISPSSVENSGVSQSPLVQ
Summary of the method: (§1)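 Binding of compounds to several retinoid receptor subtypes was measured. Results are given as Ki values in nanomolar concentration, derived per Cheng et al.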

[3] = target: T1, RXRβ; assay: ligand binding assay, RXRβ; conditions: for Ki: read-out: RXR Bind Ki β; for Kd: Table 9 (Formula F), read-out: RXR β Kd
Summary of the method: as §1

[4] = target: T3, RXRα (Homo sapiens, UniProt P19793); assay: ligand binding assay, RXRα; conditions: for Ki: read-out: RXR Bind Ki α; for Kd: Table 9 (Formula F), read-out: RXR α Kd
T3 construct: expressed in transfected cells
T3 sequence (P19793 1-462): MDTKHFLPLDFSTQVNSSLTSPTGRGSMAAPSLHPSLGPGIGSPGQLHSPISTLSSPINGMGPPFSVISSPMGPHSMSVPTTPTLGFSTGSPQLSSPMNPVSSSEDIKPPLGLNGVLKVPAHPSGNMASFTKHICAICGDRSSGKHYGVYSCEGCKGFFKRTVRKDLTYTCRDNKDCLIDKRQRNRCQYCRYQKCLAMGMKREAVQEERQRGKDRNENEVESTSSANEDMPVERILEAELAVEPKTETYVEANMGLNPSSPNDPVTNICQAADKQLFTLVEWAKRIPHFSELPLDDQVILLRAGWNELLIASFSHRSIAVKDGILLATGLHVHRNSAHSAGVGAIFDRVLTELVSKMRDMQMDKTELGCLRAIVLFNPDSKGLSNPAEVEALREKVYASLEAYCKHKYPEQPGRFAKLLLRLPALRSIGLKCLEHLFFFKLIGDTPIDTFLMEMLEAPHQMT
Summary of the method: as §1

| EC50 [1] | RXR Trans. efficacy (number in parentheses) β [1] | Ki [2] | Ki [3] | Ki [4] | Kd [2] | Kd [3] | Kd [4] | Compound |
| --- | --- | --- | --- | --- | --- | --- | --- | --- |
| 52 nM | 45% | 442 nM | 85 nM | 10 nM | – | – | – | CCOc1c(\C(C)=C(F)/C=C/C(C)=C/C(=O)O)cc2c(c1Cl)OC(C)(C)C=C2C(C)C [Compound 172, 7-(8-Chloro-4-isopropyl-7-ethoxy-2,2-dimethyl-2H-chromen-6-yl)-6-fluoro-3-methyl-octa-2E,4E,6E-trienoic acid] |
| 527 nM | 12% | 1300 nM | 319 nM | 29 nM | – | – | – | CC(/C=C/C(F)=C(/C)c1cc2c(c(Cl)c1OC(C)C)OC(C)(C)C=C2C(C)C)=C\C(=O)O [Compound 174] |
| 2.2 nM | 68% | – | – | – | 252 nM | 16 nM | 3 nM | CCOc1c(\C(C)=C(F)/C=C/C(C)=C/C(=O)O)cc2c(c1Br)C(C)(C)CC=C2C(C)C [Compound A-169, (2E,4E,6E)-7-(4-Bromo-3-ethoxy-8-isopropyl-5,5-dimethyl-5,6-dihydro-naphthalen-2-yl)-6-fluoro-3-methyl-octa-2.4,6-trienoic acid] |
| 1 nM | 59% | – | – | – | 56 nM | 14 nM | 2 nM | CCOc1c(\C(CC)=C(F)/C=C/C(C)=C/C(=O)O)cc2c(c1Br)C(C)(C)CC=C2C(C)C [Compound A-170, (2E,4E,6E)-7-(4-Bromo-3-ethoxy-8-isopropyl-5,5-dimethyl-5,6-dihydro-naphthalen-2-yl)-6-fluoro-3-methyl-nona-2,4,6-trienoic acid] |
| 3 nM | 30% | – | – | – | 37 nM | 15 nM | 2 nM | CCOc1c(\C(=C(F)/C=C/C(C)=C/C(=O)O)C(C)C)cc2c(c1Br)C(C)(C)CC=C2C(C)C [Compound A-171, (2E,4E,6E)-7-(4-Bromo-3-ethoxy-8-isopropyl-5,5-dimethyl-5,6-dihydro-naphthalen-2-yl)-6-fluoro-3.8-dimethyl-nona-2.4,6-trienoic acid] |
| 83 nM | 39% | – | – | – | 212 nM | 41 nM | 8 nM | CC(/C=C/C(F)=C(/C)c1cc2c(c(Br)c1OC(C)C)C(C)(C)CC=C2C(C)C)=C\C(=O)O [Compound A-172, (2E,4E,6E)-7-(4-Bromo-3-isopropoxy-8-isopropyl-5,5-dimethyl-5,6-dihydro-naphthalen-2-yl)-6-fluoro-3-methyl-octa-2,4,6-trienoic acid] |
| 7 nM | 25% | – | – | – | 517 nM | 12 nM | 2 nM | CCOc1c(\C(C)=C(F)/C=C/C(C)=C/C(=O)O)cc2c(c1Br)C(C)(C)CC=C2C(C)(C)C [Compound A-174, (2E,4E,6E)-7-(4-Bromo-8-tert-butyl-3-ethoxy-5,5-dimethyl-5,6-dihydro-naphthalen-2-yl)-6-fluoro-3-methyl-octa-2,4,6-trienoic acid] |
| 0.5 nM | 66% | – | – | – | 443 nM | 12 nM | 2 nM | CCOc1c(\C(C)=C(F)/C=C/C(C)=C/C(=O)O)cc2c(c1Cl)C(C)(C)CC=C2C(C)C [Compound A-177, (2E,4E,6E)-7-(4-Chloro-3-ethoxy-8-isopropyl-5,5-dimethyl-5,6-dihydronaphthalen-2-yl)6-fluoro-3-methyl-octa-2,4,6-trienoic acid] |
| 0.5 nM | 53% | – | – | – | 79 nM | 11 nM | 1 nM | CCOc1c(\C(CC)=C(F)/C=C/C(C)=C/C(=O)O)cc2c(c1Cl)C(C)(C)CC=C2C(C)C [Compound A-178, (2E,4E,6E)-7-(4-Chloro-3-ethoxy-8-isopropyl-5,5-dimethyl-5,6-dihydronaphthalen-2-yl)-6-fluoro-3-methyl-nona-2,4,6-trienoic acid] |

Continued, compound first:

| Compound | EC50 [1] | RXR Trans. efficacy (number in parentheses) β [1] | Ki [2] | Ki [3] | Ki [4] | Kd [2] | Kd [3] | Kd [4] |
| --- | --- | --- | --- | --- | --- | --- | --- | --- |
| CCOc1c(\C(CC)=C(F)/C=C/C(C)=C/C(=O)O)cc2c(c1Cl)OC(C)(C)C=C2C(C)C [Compound 173] | 18 nM | 21% | 431 nM | 36 nM | 2 nM | – | – | – |
| CCOc1cc2c(cc1\C(=C/C=C/C(C)=C/C(=O)O)CC)C(C)=CCC2(C)C [Compound A-16, 7-(3-Ethoxy-5,5,8-trimethyl-5,6-dihydronaphthalen-2-yl)-3-methyl-nona-2E,4E,6Z-trienoic acid] | 191 nM | 37% | 610 nM | 49 nM | 8.7 nM | – | – | – |
| CCOc1cc2c(cc1\C(C)=C/C=C/C(C)=C/C(=O)O)C(C(C)(C)C)=CCC2(C)C [Compound A-17, 7-(8-tert-Butyl-3-ethyloxy-5,5-dimethyl-5,6-dihydronaphthalen-2-yl)-3-methyl-octa-2E,4E,6Z-trienoic acid] | 3.2 nM | 72% | 401 nM | 16 nM | 2.4 nM | – | – | – |
| CCOc1cc2c(cc1\C(=C/C=C/C(C)=C/C(=O)O)CC)C(C(C)(C)C)=CCC2(C)C [Compound A-18, 7-(8-tert-butyl-3-ethyoxy-5,5-dimethyl-5,6-dihydronaphthalen-2-yl)-3-methyl-nona-2E,4E,6Z-trienoic acid] | 11 nM | 21% | 137 nM | 31 nM | 5 nM | – | – | – |
| CCOc1cc2c(cc1\C(C)=C(F)/C=C/C(C)=C/C(=O)O)C=CCC2(C)C [Compound A-76, (2E,4E,6E)-7-(3-Ethoxy-5,5-dimethyl-5,6-dihydro-naphthalen-2-yl)-6-fluoro-3-methyl-octa-2,4.6-trienoic acid] | 368 nM | 128% | 2600 nM | 347 nM | 35 nM | – | – | – |
| CCOc1cc2c(cc1\C(CC)=C(F)/C=C/C(C)=C/C(=O)O)C=CCC2(C)C [Compound A-77] | > 1000 nM | – | 371 nM | 63 nM | 6 nM | – | – | – |
| CCOc1cc2c(cc1\C(CC)=C(F)/C=C/C(C)=C/C(=O)O)C(CC)=CCC2(C)C [Compound A-78, (2E,4E,6E)-7-(3-Ethoxy-8-ethyl-5,5-dimethyl-5,6-dihydro-naphthalen-2-yl)-6-fluoro-3-methyl-nona-2,4,6-trienoic acid] | 18 nM | 23% | 477 nM | 19 nM | 3 nM | – | – | – |
| CCOc1cc2c(cc1\C(C)=C(F)/C=C/C(C)=C/C(=O)O)C(C(C)(C)C)=CCC2(C)C [Compound A-82, (2E,4E,6E)-6-Fluoro-3-(4,4-dimethyl-6-ethoxy-1-tert-butyl-3,4 dihydronaphthalen-7-yl)-3-methyl-2,4,6-octa-trienoic acid] | 4 nM | 41% | 400 nM | 14 nM | 2 nM | – | – | – |
| CCOc1cc2c(cc1\C(CC)=C(F)/C=C/C(C)=C/C(=O)O)C(C(C)(C)C)=CCC2(C)C [Compound A-83, (2E,4E,6E)-7-(8-tert-Butyl-3-ethoxy-5,5-dimethyl-5,6-dihydronaphthalen-2-yl)-6-fluoro-3-methyl-nona-2,4,6-trienoic acid] | 7 nM | 17% | 261 nM | 12 nM | 2 nM | – | – | – |
